US20250345512A1, “COMBINATION SODIUM-GLUCOSE COTRANSPORTER INHIBITOR (SGLTI) INSULIN THERAPY FOR GLYCEMIC CONTROL IN TYPE 1 DIABETES” (University of Virginia Patent Foundation, priority 2022, published 2025)

System: participants with T1D
Test: Randomized crossover clinical trial (NCT04201496): CGM glycemic outcomes with 5 mg daily empagliflozin adjunctive to AID (Control-IQ, CIQ) or PLGS (Basal-IQ, BIQ)
Assay type: in vivo, human
Conditions: for Difference (95% CI): daytime glucose % Time in range of 70 to 180 mg/dL: adjusted for pre-randomization HbA1c
Description: FIG. 2 presents a study analysis relative to baseline, control IQ (CIQ) (e.g., AID), and basal IQ (BIQ) (e.g., PLGS) implementation, according to investigation that is demonstrable of one or more embodiments herein. Therein, an experimental arm (G1, G2) providing an initial daily dose of 5 mg empagliflozin (EMPA) is depicted against a control arm (G3, G4) without such dosing (NOEMPA). Relative characteristics of the analysis are provided below.
Study Design: A single-center, randomized, controlled, unblinded, crossover clinical trial (NCT04201496) compared four parallel groups, two groups in the experimental arm (EMPA) with 5 mg daily empagliflozin as adjunctive therapy to PLGS or AID, and two groups in the control arm (NOEMPA) with no drug and with a PLGS system (Basal-IQ, Tandem Diabetes Care) or AID system (Control-IQ, Tandem Diabetes Care). The groups within each arm differed from one another in the order of the randomly assigned crossover technological intervention, relative to PLGS being followed by AID or AID being followed by PLGS, respectively (FIG. 4). The study protocol was approved by the University of Virginia Institutional Review Board (IRB). An investigational device exemption (IDE), including an investigational new drug (IND) application for empagliflozin, was approved by the FDA. Safety aspects were overseen by an external data and safety monitoring board (DSMB). Participants: Major inclusion criteria were T1D treated with insulin for at least one year, use of continuous subcutaneous insulin infusion therapy for at least six months, age 18-65 yrs., no use of glucose lowering agents other than insulin, and Hb1Ac<9% (75 mmol/mol). Randomization: A (1:1:1:1) randomization assigned participants to either Group 1, AID-EMPA (4 weeks) followed by PLGS-EMPA (2 weeks), Group 2, PLGS-EMPA (2 weeks) followed by AID-EMPA (4 weeks), Group 3, AID-NOEMPA (4 weeks) followed by PLGS-NOEMPA (2 weeks), and Group 4, PLGS-NOEMPA (2 weeks) followed by AID-NOEMPA (4 weeks). Procedures: After confirmation of eligibility, participants underwent study equipment and medication training (experimental arm), or only study equipment training (control arm). Study equipment consisted of Dexcom G6® CGM (Dexcom Inc., San Diego, CA), Contour® Next blood glucose (Ascensia Diabetes Care, Basel, Switzerland) and Precision Xtra® blood ketone meters (Abbott, Alameda, CA) with their respective test strips; infusion sets, and the use of the t:slim X2™ insulin pump with Basal-IQ or Control-IQ technologies (Tandem Diabetes Care, San Diego, CA), according to randomization. […] Participants in the experimental arm were asked to record two days of baseline ketone values before initiating the use of the study drug. Thereafter, participants were directed to use the study CGM with EMPA for 1-2 weeks. A tolerance to the medication was assessed prior to the starting of the next study phase, including adherence to the protocol, ketone testing 2-4 times per day with monitored values not greater than 0.6 mmol/L on at least two successive occasions (the first testing upon waking in a fasted state), no adverse events relating to perineal infection or symptomatic postural hypotension, and no evidence of significant hypoglycemia <54 mg/dL, or any other listed adverse effects of the medication. Participants in the control arm were directed to use the study CGM for 1-2 weeks. Sample Size: The total sample size was projected to be 40 participants, assuming 1) 1:1:1:1 randomization; 2) 90% power and type 1 error a=0.01, further reinforcing the feasibility of hierarchical analyses. The projected recruitment sample was n=50, to accommodate up to 20% attrition rate without sacrificing statistical power. Analytical methods: For the primary analysis, TIR during the day in the 4-week AID period was compared between the two EMPA groups versus the two NOEMPA groups using a linear mixed-effects regression model while adjusting for pre-randomization HbAlc and age. […]

[1] = EMPA minus NOEMPA on same insulin system, adjusted for HbA1c
[2] = daytime (7:00-23:00), head prints CIQ-EMPA vs. BIQ-NOEMPA
[3] = daytime (7:00-23:00), CIQ-EMPA vs. BIQ-NOEMPA, BIQ-EMPA vs. CIQ-NOEMPA
[4] = daytime (7:00-23:00), CIQ-EMPA vs. CIQ-NOEMPA, BIQ-EMPA vs. BIQ-NOEMPA
[5] = daytime (7:00-23:00), n = 16, mean ± SD
[6] = daytime (7:00-23:00), n = 16, median (IQR)
[7] = overall, head prints CIQ-EMPA vs. BIQ-NOEMPA

## OC[C@H]1O[C@@H](c2ccc(Cl)c(Cc3ccc(O[C@H]4CCOC4)cc3)c2)[C@H](O)[C@@H](O)[C@@H]1O [CIQ-EMPA, empagliflozin]
24/7, n = 17
  24/7 HBGI - median (IQR): 2.7(2-4.4)
  24/7 LBGI - median (IQR): 0.5(0.4-0.6)
  24/7 glucose level <70 mg/dL (<3.9 mmol/L) - median % time (IQR): 1.1(0.5-1.5) %
24/7, n = 17, listed as AID-EMPA
  24/7 glucose level <70 mg/dL (<3.9 mmol/L) - median % time (IQR): 1.1(0.5-1.5) %
24/7, n = 17, mean ± SD
  24/7 Mean glucose level -: 137 ± 19 mg/dL
24/7, n = 17, mean ± SD, listed as AID-EMPA
  24/7 Mean glucose level -: 137 mg/dL
AID-EMPA vs AID-NOEMPA, daytime 7:00 to 23:00 h
  daytime TIR mean adjusted difference, amounting to hours per day: 1.6 hours per day
[1]
  Difference (95% CI): 24/7 HBGI: −2.5(−5.3 to 0.2)
  Difference (95% CI): 24/7 LBGI: 0.06(−0.4 to 0.5)
  Difference (95% CI): 24/7 Mean glucose level: −17.3(−35.4 to 0.8) mg/dL
  Difference (95% CI): 24/7 glucose level <70 mg/dL % time: −1.1(−3.2 to 0.9) percentage points
  Difference (95% CI): Daytime CGM CV: −3.3(−6.1 to −0.5) %
  Difference (95% CI): Daytime CGM SD: −9.3(−17.8 to −0.93) mg/dL
EMPA minus NOEMPA on same insulin system, adjusted for HbA1c, listed as AID-EMPA
  Difference (95% CI): 24/7 glucose level <70 mg/dL % time: −1.1 percentage points
EMPA minus NOEMPA on same insulin system
  Difference (95% CI): daytime glucose % Time in range of 70 to 180 mg/dL: 9.9(0.6 to 19.1) percentage points
EMPA minus NOEMPA on same insulin system, listed as AID-EMPA
  Difference (95% CI): daytime glucose % Time in range of 70 to 180 mg/dL: +9.9 percentage points
Daytime 7:00 to 23:00 h, n = 17, mean ± SD
  Primary: daytime glucose % Time in range of 70 to 180 mg/dL (3.9-10.0 mmol/L): 81 ± 10%
Daytime 7:00 to 23:00 h, n = 17, mean ± SD, listed as AID-EMPA
  Primary: daytime glucose % Time in range of 70 to 180 mg/dL (3.9-10.0 mmol/L): 81+10%
[2]
  Difference (95% CI): % CGM time 70-140 mg/dL (<3.9-7.8 mmol/L): −1.4 percentage points
  Difference (95% CI): % CGM time <60 mg/dL (<3.3 mmol/L): −0.5 percentage points
  Difference (95% CI): % CGM time >180 mg/dL (>10.0 mmol/L): −0.8 percentage points
  Difference (95% CI): % CGM time >250 mg/dL (>13.9 mmol/L): −1.6 percentage points
  Difference (95% CI): % CGM time >300 mg/dL (>16.7 mmol/L): −0.9 percentage points
  Difference (95% CI): CGM HBGI: −6.3
  Difference (95% CI): CGM LBGI: −0.3
  Difference (95% CI): Mean CGM glucose: 0.2 mg/dL
Daytime (7:00-23:00), head prints CIQ-EMPA vs. BIQ-NOEMPA, listed as AID-EMPA
  Difference (95% CI): % CGM time <70 mg/dL (<3.9 mmol/L): −1 percentage points
[3]
  Difference (95% CI): % CGM time 70-140 mg/dL (<3.9-7.8 mmol/L): 16.2 percentage points
  Difference (95% CI): % CGM time <60 mg/dL (<3.3 mmol/L): −0.6 percentage points
  Difference (95% CI): % CGM time <70 mg/dL (<3.9 mmol/L): −0.7 percentage points
  Difference (95% CI): % CGM time >180 mg/dL (>10.0 mmol/L): −17.6 percentage points
  Difference (95% CI): % CGM time >250 mg/dL (>13.9 mmol/L): −9.2 percentage points
  Difference (95% CI): % CGM time >300 mg/dL (>16.7 mmol/L): −3.6 percentage points
  Difference (95% CI): CGM HBGI: −4.4
  Difference (95% CI): CGM LBGI: 0
  Difference (95% CI): CGM SD: -15.5 mg/dL
  Difference (95% CI): Mean CGM glucose: -23.6 mg/dL
[4]
  Difference (95% CI): % CGM time <50 mg/dL (<2.8 mmol/L): −0.2 percentage points
  Difference (95% CI): % CGM time <60 mg/dL (<3.3 mmol/L): −0.7 percentage points
  Difference (95% CI): % CGM time >180 mg/dL (>10.0 mmol/L): −10.3 percentage points
  Difference (95% CI): % CGM time >250 mg/dL (>13.9 mmol/L): −3.8 percentage points
  Difference (95% CI): % CGM time >300 mg/dL (>16.7 mmol/L): −1.3 percentage points
  Difference (95% CI): CGM CV (%): −3.3%
  Difference (95% CI): CGM HBGI: −2.2
  Difference (95% CI): CGM LBGI: 0
  Difference (95% CI): CGM SD: -9.3 mg/dL
  Difference (95% CI): Mean CGM glucose: -14.6 mg/dL
[5]
  % CGM time 70-140 mg/dL (3.9-7.8 mmol/L): 56.7 ± 13.4%
  % CGM time 70-180 mg/dL (3.9-10.0 mmol/L): 80.6 ± 10.5%
  CGM CV (%): 30.4 ± 3.5%
  CGM SD: 42.6 ± 9.7 mg/dL
  Mean CGM glucose: 139 ± 19 mg/dL
[6]
  % CGM time <50 mg/dL (<2.8 mmol/L): 0(0-0.1) %
  % CGM time <60 mg/dL (<3.3 mmol/L): 0.4(0-0.5) %
  % CGM time <70 mg/dL (<3.9 mmol/L): 1.2(0.6-1.7) %
  % CGM time >180 mg/dL (>10.0 mmol/L): 15.8(6.2-26) %
  % CGM time >250 mg/dL (>13.9 mmol/L): 1.2(0.4-3.7) %
  % CGM time >300 mg/dL (>16.7 mmol/L): 0(0-0.6) %
  CGM HBGI: 3.4(1.9-5.5)
  CGM LBGI: 0.5(0.4-0.6)
daytime, n = 17, mean ± SD
  Daytime CGM CV - %: 30.4 ± 3.5%
  Daytime CGM SD -: 42.6 ± 9.8 mg/dL
[7]
  Difference: CGM HBGI: −1.1
  Difference: CGM LBGI: −0.3
overall, head prints CIQ-EMPA vs. BIQ-NOEMPA, listed as AID-EMPA
  Difference: % CGM time <70 mg/dL (<3.9 mmol/L): −1.2 percentage points
